# Experiments:
# [1] = tested on: Rattus norvegicus
# [2] = tested on: Oncorhynchus mykiss; details: acute; duration: 96 hours; mortality
# [3] = tested on: Colinus virginianus
# [4] = tested on: Hypoaspis aculeifer; details: chronic/long-term; reproduction
# [5] = tested on: Apis mellifera; details: acute, mortality
# [6] = tested on: Daphnia magna; details: chronic/long-term; duration: 21 days; growth
# [7] = tested on: Oryctolagus sp.; details: reproduction developmental
# [8] = tested on: Anas platyrhynchos; details: acute; oral; unspecified; mortality
# [9] = tested on: Folsomia candida; details: chronic/long-term; reproduction
# [10] = tested on: Lepomis macrochirus; details: acute; duration: 96 hours; mortality
# [11] = tested on: Aphidius rhopalosiphi; assay: LR50; higher = less toxic; details: not reported, mortality
structure (smiles),measurement,setting,value
COc1cc(OC)nc(NC(=O)NS(=O)(=O)c2cc(NC=O)ccc2C(=O)N(C)C)n1 [Foramsulfuron],LD50,"[1]; acute, oral, mortality",> 5000 mg/kg
same,NOEL,"[1]; reproduction developmental, F, reproduction",1430 mg/kg-day
same,NOAEL,"[1]; reproduction developmental, duration: 2 years, reproduction",25 mg/kg-day
same,LC50,[2],> 100 µg/mL
same,LD50,"[3]; acute, oral, mortality",> 2000 mg/kg
same,NOEL,[3]; reproduction developmental,104 mg/kg-day
same,NOEC,[4],1000 mg/kg
same,LD50,[5]; dermal,> 4.66 µg/piece
same,LD50,"[5]; duration: 48 hours, oral, unspecified",> 5 µg/piece
same,NOEC,[6],100 mg/L
same,NOAEL,[7]; body weight,50 mg/kg-day
same,NOEL,[7]; no effects,500 mg/kg-day
same,LD50,[8],> 2000 mg/kg
same,NOEC,[9],100 mg/kg
same,LC50,[10],> 100 µg/mL
same,LR50,[11]; duration: 7 days,> 60 g/ha
same,LR50,[11],> 5.6 g/ha

# Reference: EPA's ToxValDB 9.5 (doi:10.2903/j.efsa.2016.4421)
